Measurements from patent US4259235A, “Tricyclic nitrogenous compounds having string plant growth regulating properties” (BASF Aktiengesellschaft, priority 1977, dated 1981).

Legend:
spring wheat [1] = assay: Growth height of spring wheat, soil treatment, Example 10; type: in vivo, spring wheat ("Opal" variety)
Method: (§1) Spring wheat ("Opal" variety) and spring barley ("Union" variety) were grown under greenhouse conditions in plastic dishes 11.5 cm in diameter, in a peat substrate provided with sufficient nutrients. For the soil (preemergence) treatment, the active ingredients were poured, at two application rates, as aqueous formulations onto the surface of the substrate after sowing.
(§2) The plant height was measured at the end of the experiment. The figures obtained show the shortening effect of the active ingredients under investigation. The prior art compound β-chloroethylphosphonic acid (Ethephon, German Printed Application DAS No. 1,667,968) was used for comparison purposes.

spring barley [2] = assay: Growth height of spring barley, leaf treatment, Example 10; type: in vivo, spring barley ("Union" variety)
Method: as §1
(§3) Leaf treatment was effected by spraying the plants at a growth height of 10 cm with aqueous formulations of the active ingredients at two application rates.
as §2

spring wheat [3] = assay: Growth height of spring wheat, leaf treatment, Example 10; type: in vivo, spring wheat ("Opal" variety)
Method: as §1, §3, §2

spring barley [4] = assay: Growth height of spring barley, soil treatment, Example 10; type: in vivo, spring barley ("Union" variety)
Method: as §1, §2

grass = assay: Growth height of, and amount of mowings in, grass, Example 12; type: in vivo; conditions: for First mowing, growth height, relative / First mowing, mowings, relative / Second mowing, growth height, relative / Second mowing, mowings, relative: control = 100
Description: In an experiment in large vessels, lawn seed of the following standard composition was sown in a loamy soil: Agrostis tenuis (10%), Cynosurus cristatus (10%), Festuca rubra (15%), Lolium perenne (35%) and Poa pratensis (30%). 1.5 g of N as ammonium nitrate and 1 g of P2 O5 as secondary potassium phosphate were applied as fertilizer. After the grass had been cut twice, the active ingredients were sprayed in conventional manner at various application rates onto the grass which was 4 cm high. The growth height and the mowings were determined 19 days after the treatment. Compared with the control, the treated plants reacted with most considerable height reductions and a proportionate decrease in mowings.

## Brc1ccc(C2=NOC3C4CC(C5N=NC45)C23)cc1 (centres unmarked) [drawing 393]
Spring wheat [1]; 3 kg/ha
  Plant height: 26.5 cm
  Plant height, % of untreated control: 82.8%
Spring wheat [1]; 12 kg/ha
  Plant height: 25.5 cm
  Plant height, % of untreated control: 79.7%

## FC(F)(F)c1cccc(NC2C(I)C3CC2C2N=NC32)c1 (centres unmarked) [drawing 415]
Spring barley [2]; 1.5 kg/ha
  Plant height: 25.0 cm
  Plant height, % of untreated control: 89.3%
Spring barley [2]; 6.0 kg/ha
  Plant height: 24.0 cm
  Plant height, % of untreated control: 85.7%

## Cc1ccc(C2=NOC3C4CC(C5N=NC45)C23)cc1 (centres unmarked) [drawing 413]
Spring barley [2]; 1.5 kg/ha
  Plant height: 25.5 cm
  Plant height, % of untreated control: 91.1%
Spring barley [2]; 6.0 kg/ha
  Plant height: 25.0 cm
  Plant height, % of untreated control: 89.3%

## Clc1ccc(C2N=NC3C4CC(C5N=NC45)C23)cc1 (centres unmarked) [drawing 392]
Spring wheat [1]; 3 kg/ha
  Plant height: 17.0 cm
  Plant height, % of untreated control: 53.1%
Spring wheat [1]; 12 kg/ha
  Plant height: 14.0 cm
  Plant height, % of untreated control: 43.8%

## Cc1ccc(C2=NOC3C4CC(C5N=NC45)C23)cc1 (centres unmarked) [drawing 401]
Spring wheat [3]; 1.5 kg/ha
  Plant height: 29.5 cm
  Plant height, % of untreated control: 89.9%
Spring wheat [3]; 6.0 kg/ha
  Plant height: 27.5 cm
  Plant height, % of untreated control: 83.3%

## Clc1ccc(C2=NOC3C4CC(C5N=NC45)C23)cc1 (centres unmarked) [drawing 402]
Spring wheat [3]; 1.5 kg/ha
  Plant height: 29.0 cm
  Plant height, % of untreated control: 88.4%
Spring wheat [3]; 6.0 kg/ha
  Plant height: 27.0 cm
  Plant height, % of untreated control: 82.3%

## O=[N+]([O-])c1ccc(C2=NOC3C4CC(C5N=NC45)C23)cc1 (centres unmarked) [drawing 406]
Spring barley [4]; 3 kg/ha
  Plant height: 27.0 cm
  Plant height, % of untreated control: 78.8%
Spring barley [4]; 12 kg/ha
  Plant height: 24.0 cm
  Plant height, % of untreated control: 70.0%

## O=[N+]([O-])c1ccc(C2=NOC3C4CC(C5N=NC45)C23)cc1 (centres unmarked) [drawing 400]
Spring wheat [3]; 1.5 kg/ha
  Plant height: 29.0 cm
  Plant height, % of untreated control: 88.4%
Spring wheat [3]; 6.0 kg/ha
  Plant height: 27.0 cm
  Plant height, % of untreated control: 82.3%

## Brc1ccc(C2=NOC3C4CC(C5N=NC45)C23)cc1 (centres unmarked) [drawing 411]
Spring barley [2]; 1.5 kg/ha
  Plant height: 25.5 cm
  Plant height, % of untreated control: 91.1%
Spring barley [2]; 6.0 kg/ha
  Plant height: 25.0 cm
  Plant height, % of untreated control: 89.3%

## FC(F)(F)c1cccc(NC2C(I)C3CC2C2N=NC32)c1 (centres unmarked) [drawing 403]
Spring wheat [3]; 1.5 kg/ha
  Plant height: 27.5 cm
  Plant height, % of untreated control: 83.3%
Spring wheat [3]; 6.0 kg/ha
  Plant height: 25.5 cm
  Plant height, % of untreated control: 77.7%

## Clc1ccc(C2N=NC3C4CC(C5N=NC45)C23)cc1 (centres unmarked) [drawing 410]
Spring barley [2]; 1.5 kg/ha
  Plant height: 22.0 cm
  Plant height, % of untreated control: 78.6%
Spring barley [2]; 6.0 kg/ha
  Plant height: 19.5 cm
  Plant height, % of untreated control: 69.6%

## O=[N+]([O-])c1ccc(C2=NOC3C4CC(C5N=NC45)C23)cc1 (centres unmarked) [drawing 412]
Spring barley [2]; 1.5 kg/ha
  Plant height: 25.0 cm
  Plant height, % of untreated control: 89.3%
Spring barley [2]; 6.0 kg/ha
  Plant height: 24.5 cm
  Plant height, % of untreated control: 87.5%

## Brc1ccc(C2=NOC3C4CC(C5N=NC45)C23)cc1 (centres unmarked) [drawing 399]
Spring wheat [3]; 1.5 kg/ha
  Plant height: 29.0 cm
  Plant height, % of untreated control: 88.4%
Spring wheat [3]; 6.0 kg/ha
  Plant height: 27.5 cm
  Plant height, % of untreated control: 83.8%

## COc1ccc(C2=NOC3C4CC(C5N=NC45)C23)cc1 (centres unmarked) [drawing 408]
Spring barley [4]; 3 kg/ha
  Plant height: 30.0 cm
  Plant height, % of untreated control: 87.5%
Spring barley [4]; 12 kg/ha
  Plant height: 29.0 cm
  Plant height, % of untreated control: 84.5%

## Brc1ccc(C2=NOC3C4CC(C5N=NC45)C23)cc1 (centres unmarked) [drawing 405]
Spring barley [4]; 3 kg/ha
  Plant height: 28.0 cm
  Plant height, % of untreated control: 81.6%
Spring barley [4]; 12 kg/ha
  Plant height: 26.0 cm
  Plant height, % of untreated control: 75.8%

## Clc1ccc(C2=NOC3C4CC(C5N=NC45)C23)cc1 (centres unmarked) [drawing 397]
Spring wheat [1]; 3 kg/ha
  Plant height: 16.0 cm
  Plant height, % of untreated control: 50.0%
Spring wheat [1]; 12 kg/ha
  Plant height: 15.0 cm
  Plant height, % of untreated control: 46.9%

## Cc1ccc(C2=NOC3C4CC(C5N=NC45)C23)cc1 (centres unmarked) [drawing 395]
Spring wheat [1]; 3 kg/ha
  Plant height: 23.5 cm
  Plant height, % of untreated control: 73.4%
Spring wheat [1]; 12 kg/ha
  Plant height: 22.0 cm
  Plant height, % of untreated control: 68.8%

## Clc1ccc(C2=NOC3C4CC(C5N=NC45)C23)cc1 (centres unmarked) [drawing 426]
grass; 3.0 kg/ha
  First mowing, growth height: 21.0 cm
  First mowing, mowings: 117.7 g
  Second mowing, growth height: 18.5 cm
  Second mowing, mowings: 75.3 g
  First mowing, growth height, relative: 96.3
  First mowing, mowings, relative: 87.7
  Second mowing, growth height, relative: 92.5
  Second mowing, mowings, relative: 83.1
grass; 6.0 kg/ha
  First mowing, growth height: 18.5 cm
  First mowing, mowings: 114.0 g
  Second mowing, growth height: 17.0 cm
  Second mowing, mowings: 72.1 g
  First mowing, growth height, relative: 84.9
  First mowing, mowings, relative: 84.9
  Second mowing, growth height, relative: 85.0
  Second mowing, mowings, relative: 79.6

## c1ccc(C2=NOC3C4CC(C5N=NC45)C23)cc1 (centres unmarked) [drawing 424]
grass; 3.0 kg/ha
  First mowing, growth height: 20.0 cm
  First mowing, mowings: 116.3 g
  Second mowing, growth height: 19.0 cm
  Second mowing, mowings: 94.8 g
  First mowing, growth height, relative: 91.7
  First mowing, mowings, relative: 86.7
  Second mowing, growth height, relative: 95.0
  Second mowing, mowings, relative: 104.6
grass; 6.0 kg/ha
  First mowing, growth height: 17.0 cm
  First mowing, mowings: 101.1 g
  Second mowing, growth height: 16.5 cm
  Second mowing, mowings: 85.2 g
  First mowing, growth height, relative: 78.0
  First mowing, mowings, relative: 75.3
  Second mowing, growth height, relative: 82.5
  Second mowing, mowings, relative: 94.0

## O=[N+]([O-])c1ccc(C2=NOC3C4CC(C5N=NC45)C23)cc1 (centres unmarked) [drawing 394]
Spring wheat [1]; 3 kg/ha
  Plant height: 25.5 cm
  Plant height, % of untreated control: 79.7%
Spring wheat [1]; 12 kg/ha
  Plant height: 22.0 cm
  Plant height, % of untreated control: 68.8%

## COc1ccc(C2=NOC3C4CC(C5N=NC45)C23)cc1 (centres unmarked) [drawing 396]
Spring wheat [1]; 3 kg/ha
  Plant height: 27.0 cm
  Plant height, % of untreated control: 84.4%
Spring wheat [1]; 12 kg/ha
  Plant height: 24.5 cm
  Plant height, % of untreated control: 76.6%

## Clc1ccc(C2N=NC3C4CC(C5N=NC45)C23)cc1 (centres unmarked) [drawing 425]
grass; 3.0 kg/ha
  First mowing, growth height: 20.0 cm
  First mowing, mowings: 125.1 g
  Second mowing, growth height: 19.0 cm
  Second mowing, mowings: 89.9 g
  First mowing, growth height, relative: 91.7
  First mowing, mowings, relative: 93.2
  Second mowing, growth height, relative: 95.0
  Second mowing, mowings, relative: 99.2
grass; 6.0 kg/ha
  First mowing, growth height: 18.0 cm
  First mowing, mowings: 119.0 g
  Second mowing, growth height: 19.0 cm
  Second mowing, mowings: 92.2 g
  First mowing, growth height, relative: 82.6
  First mowing, mowings, relative: 88.7
  Second mowing, growth height, relative: 95.0
  Second mowing, mowings, relative: 101.8

## Clc1ccc(C2=NOC3C4CC(C5N=NC45)C23)cc1 (centres unmarked) [drawing 409]
Spring barley [4]; 3 kg/ha
  Plant height: 26.0 cm
  Plant height, % of untreated control: 75.8%
Spring barley [4]; 12 kg/ha
  Plant height: 24.0 cm
  Plant height, % of untreated control: 70.0%

## Clc1ccc(C2N=NC3C4CC(C5N=NC45)C23)cc1 (centres unmarked) [drawing 404]
Spring barley [4]; 3 kg/ha
  Plant height: 22.0 cm
  Plant height, % of untreated control: 64.1%
Spring barley [4]; 12 kg/ha
  Plant height: 20.0 cm
  Plant height, % of untreated control: 58.3%

## Clc1ccc(C2N=NC3C4CC(C5N=NC45)C23)cc1 (centres unmarked) [drawing 398]
Spring wheat [3]; 1.5 kg/ha
  Plant height: 23.5 cm
  Plant height, % of untreated control: 71.6%
Spring wheat [3]; 6.0 kg/ha
  Plant height: 22.0 cm
  Plant height, % of untreated control: 67.1%

## Cc1ccc(C2=NOC3C4CC(C5N=NC45)C23)cc1 (centres unmarked) [drawing 407]
Spring barley [4]; 3 kg/ha
  Plant height: 25.0 cm
  Plant height, % of untreated control: 72.9%
Spring barley [4]; 12 kg/ha
  Plant height: 21.0 cm
  Plant height, % of untreated control: 61.2%
